In US6433011B1, “Method for inhibiting formation of aberrant crypt foci in the colon of a mammal” (American Health Foundation, priority 2000, dated 2002):
Entries after “also recorded” stand apart in the source; their conditions may differ. Marks after values point to notes of the source that are not given here.

What was measured:
[1] = test system: colon tumorigenesis; conditions: rats; at the dose level studied (refs 29, 30); cited from earlier work
[2] = test system: esophagus tumorigenesis; conditions: rats; at the dose level studied (refs 29, 30); cited from earlier work
[3] = test system: lung tumorigenesis; conditions: previously reported; cited from earlier work
[4] = test system: colon tumor incidence; conditions: AOM treated rats, cited from earlier work
[5] = test system: ACF formation; conditions: given in the diet, short-term study (ref 10); cited from earlier work
[6] = test system: aberrant crypt foci (ACF) induced by azoxymethane (AOM) in the colon; assay: AOM-induced colonic aberrant crypt foci (ACF) bioassay; type: in vivo, Male F344 rats
Description: The inventors designed a bioassay to examine whether SFN and PEITC can inhibit the formation of aberrant crypt foci (ACF) induced by azoxymethane (AOM) in Fischer rats. ACF has been recognized as an early preneoplastic lesion of colon cancer (7-9) and it is generally observed that agents that inhibit colonic ACF formation would show chemopreventive activity against colon cancer (10). […] The structures of SFN and PEITC and their NAC conjugates are shown below. Two treatment regimens in which SFN and PEITC or their NAC conjugates were administered either after (post-initiation) or before (initiation) AOM treatment were used in the bioassay in order better to define the possible mechanism of action. [drawing 1] Male F344 rats were from Charles River (Kingston, N.Y.). They were fed AIN-76A diet (5% corn oil) and tap water ad libitum. […] PEITC and SFN were purchased from Aldrich Chemical Company (Milwaukee, Wis.) and LTK Labs, Inc. (St. […] The corresponding NAC conjugates were prepared by a published method (13, 26). The purity of the conjugates was greater than 97% as determined by high-performance liquid chromatography. AOM obtained from Ash-Stevens (Detroit, Mich.) was dissolved in saline and administered subcutaneously once a week for two weeks. SFN and PEITC in corn oil and the NAC conjugates in saline (10% DMSO) were given by gavage. Groups 2 to 5 were given 5 μmol SFN or PEITC or 20 μmol of the NAC conjugates, three doses each week for eight weeks, beginning two days after the last dose of AOM. Groups 6 to 9 were treated with three doses of ITC compounds (20 μmol ITC or 50 μmol ITC-NAC) once daily and the last dose was given 2 hr before AOM dosing. This dosing regimen was repeated during the second week of AOM dosing. Groups 10 to 13 were treated with ITCs (5 μmol/dose) or the conjugates (20 μmol/dose) only, three times weekly for eight weeks. Group 14 served as the control group. The bioassay was terminated at week 10 after the second AOM treatment. The colon was processed for microscopic examination and the ACF were recorded using a standard procedure described previously (14). […] For statistical analysis, means were compared among the groups using one-way analysis of variance (ANOVA) followed by Fisher's protected t-test.

[7] = biological target: N,N-dimethylnitrosamine (NDMA) demethylase (CYP2E1) (Rattus norvegicus, UniProt P05182); conditions: rat liver microsomes; previously shown (ref 26); cited from earlier work
[8] = Toxicity observations (body weight, gastrointestinal symptoms) in the ACF bioassay
[9] = dog, in vivo; cited from earlier work
[10] = ITC compound only, no AOM: 5 μmol/dose ITC or 20 μmol/dose conjugate, three times weekly for eight weeks
[11] = initiation (pretreatment): 20 μmol ITC or 50 μmol ITC-NAC before AOM, negative = enhancement
[12] = initiation (pretreatment): 20 μmol ITC or 50 μmol ITC-NAC by gavage before AOM, AOM alone (Group 1) 52
[13] = initiation (pretreatment): 20 μmol ITC or 50 μmol ITC-NAC by gavage before AOM, AOM alone (Group 1) 153
[14] = post-initiation: 5 μmol SFN or PEITC or 20 μmol NAC conjugate by gavage, three doses weekly for eight weeks after AOM, AOM alone (Group 1) 52
[15] = post-initiation: 5 μmol SFN or PEITC or 20 μmol NAC conjugate by gavage, three doses weekly for eight weeks after AOM, AOM alone (Group 1) 153
[16] = post-initiation: 5 μmol SFN or PEITC or 20 μmol NAC conjugate, three doses weekly for eight weeks after AOM
[17] = initiation: ITC compound by gavage before AOM, 20 μmol ITC or 50 μmol ITC-NAC, three doses once daily, last 2 hr before AOM, repeated in second week
[18] = post-initiation: ITC compound by gavage after AOM, 5 μmol SFN or PEITC or 20 μmol NAC conjugate, three doses each week for eight weeks

Sequence of N,N-dimethylnitrosamine (NDMA) demethylase (CYP2E1) (P05182 whole entry): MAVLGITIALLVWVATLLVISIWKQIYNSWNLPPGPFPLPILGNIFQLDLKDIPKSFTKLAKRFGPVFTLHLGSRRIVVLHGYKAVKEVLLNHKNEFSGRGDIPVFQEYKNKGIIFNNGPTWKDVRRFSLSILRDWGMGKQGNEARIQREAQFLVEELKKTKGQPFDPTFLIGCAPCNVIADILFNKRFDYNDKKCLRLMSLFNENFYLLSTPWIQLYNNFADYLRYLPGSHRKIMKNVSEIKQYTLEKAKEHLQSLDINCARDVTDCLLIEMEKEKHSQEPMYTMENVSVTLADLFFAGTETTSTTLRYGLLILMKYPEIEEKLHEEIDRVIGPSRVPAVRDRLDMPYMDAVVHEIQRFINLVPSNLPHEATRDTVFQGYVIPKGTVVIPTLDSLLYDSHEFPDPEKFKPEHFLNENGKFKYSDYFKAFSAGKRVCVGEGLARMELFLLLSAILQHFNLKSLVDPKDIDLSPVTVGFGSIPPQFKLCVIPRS

Compound | Activity towards ACF formation [5] | Number of aberrant crypt foci >4 Crypts [6, 10] | Number of aberrant crypt foci Total [6, 10] | Percent of inhibition compared to Group 1, Total aberrant crypt foci [6, 11] | Percent of inhibition compared to Group 1, aberrant crypt foci >4 Crypts [6, 11] | Number of aberrant crypt foci >4 Crypts [6, 12] | Number of aberrant crypt foci Total [6, 13] | Number of aberrant crypt foci >4 Crypts [6, 14] | Number of aberrant crypt foci Total [6, 15] | Percent of inhibition compared to Group 1, Total aberrant crypt foci [6, 16] | Percent of inhibition compared to Group 1, aberrant crypt foci >4 Crypts [6, 16] | Inhibition of NDMA demethylase (CYP2E1) [7] | Average Body Weight at Termination [8, 10] | Average Body Weight at Termination [8, 17] | Average Body Weight at Termination [8, 18] | other results
S=C=NCCCCCCc1ccccc1 [phenylhexyl ITC] |  |  |  |  |  |  |  |  |  |  |  |  |  |  |  | Effect on colon tumorigenesis [1]: enhanced; Effect on esophagus tumorigenesis [2]: enhanced; Effect on lung tumorigenesis [3]: potent inhibitor
S=C=NCc1ccccc1 [BITC, benzyl isothiocyanate] | inactive; also recorded: slightly induce ACF formation |  |  |  |  |  |  |  |  |  |  |  |  |  |  | Effect on colon tumor incidence, initiation phase ([4]; initiation phase (ref 34)): inhibit; Effect on colon tumor incidence, post-initiation phase ([4]; post-initiation phase (ref 34)): not during the post-initiation phase
CC(=O)N[C@@H](CSC(=S)NCCc1ccccc1)C(=O)O [PEITC-NAC, N-acetylcysteine conjugate of PEITC] |  | 0 | 0 | (−29)^e % | (−42)^c % | 74 | 198 | 38 | 113 | (26)^e % | (27)^f % | inhibitors | 301 | 303 | 313 | 
N-acetylcysteine conjugate of SFA [SFN-NAC] |  | 0 | 0 | (22)^c % | 15% | 44 | 120 | 31 | 116 | (24)^c % | (40)^c % |  | 312 | 304 | 297 | 
C[S+]([O-])CCCCN=C=S (centres unmarked) [SFN, sulforaphane] |  | 0 | 0 | (29)^c % | (33)^f % | 35 | 109 | 30 | 103 | (33)^d % | (42)^b,c % |  | 309 | 310 | 301 | 
S=C=NCCc1ccccc1 [PEITC, phenethyl isothiocyanate] | inactive |  |  | (25)^c % | (33)^f % | 35 | 115 | 27 | 100 | (35)^d % | (48)^c % | inhibitors |  |  |  | Dose at which dose related weight loss became statistically significant [9]: 8 mg/kg; Dose at which signs of irritation of the mucosa of the urinary bladder were reported [9]: ≥ 4 mg/kg/day; Dose levels at which diarrhea and vomiting, with gastrointestinal irritation, occurred sporadically [9]: ≥ 2 mg/kg
